Assays:
[1] = physchem; conditions: octanol/water
[2] = octanol/water
[3] = octanol/water; remark: listed apart in the source
[4] = octanol/water; remark: listed apart in the source
[5] = octanol/water; remark: listed apart in the source
[6] = physchem
[7] = octanol/water; remark: listed apart in the source

Structure (SMILES) | logP [1] | also measured
CNC(=O)Oc1cccc(C#N)c1 | 0.98 | –
Oc1ccccc1 [PHENOL] | – | logP [2]: 1.3; logP [3]: 0.36; logP [4]: -0.89
COc1ccc(S(N)(=O)=O)cc1 | 0.47 | –
Cc1ccccc1 [TOLUENE] | – | pKHB: -0.29
NCc1ccccc1 [BENZYLAMINE] | – | logP [4]: -0.15
CNC(=O)Oc1ccc(I)cc1 | 2.46 | –
CCOc1ccccc1 [PHENETOLE] | 2.51 | pKHB: 0.22
CCCCCO [1-PENTANOL] | – | logP [5]: 0.36
CCCCCC(=O)O [HEXANOATE] | – | logP [5]: 0.83
CN(C)C(=O)c1ccccc1 | 0.62 | pKHB: 2.22
CS(=O)(=O)c1ccccc1 [METHYLPHENYLSULFONE] | 0.47 | pKHB: 1.05
CNC(=O)Oc1cccc(OC)c1 | 1.3 | –
CNC(=O)Oc1ccccc1I | 1.96 | –
Oc1cccc(F)c1 | 1.93 | –
O=Cc1ccccc1 [BENZALDEHYDE] | – | logP [4]: 1.11; pKHB: 0.8
OCCCCO [1,4-BUTANEDIOL] | – | logP ([6]; octanol/water): -2.68; logP [7]: -1.72
Oc1cccc(I)c1 | 2.93 | –
CNC(=O)Oc1cccc(C=O)c1 | 0.92 | –
CNC(=O)Oc1ccccc1OC(C)C [PROPOXUR] | 1.52 | –
Cc1cccc(O)c1 [METACRESOL] | 2.02 | –
CC(=O)Nc1cccc(OCC(=O)O)c1 | 0.47 | –
CNC(=O)Oc1ccccc1OC | 0.81 | –
Oc1ccc(I)cc1 | 2.91 | –
C[C@H](O)CCO [1,3-BUTANEDIOL] | – | logP ([6]; oil/water): -2.37
Brc1ccccc1 [BROMOBENZENE] | – | logP [4]: 3.08; pKHB: -0.84

Structure (SMILES) | logP [1] | also measured
CCC(=O)O [PROPIONIC ACID] | – | logP [5]: -0.8
OCc1ccccc1 [BENZYL ALCOHOL] | – | logP [4]: -0.76
Oc1cccc(Br)c1 | 2.63 | –
NS(=O)(=O)c1cccc(Cl)c1 | 1.29 | –
CC(C)CC(N)=O [ISOVALERAMIDE] | – | logP ([6]; oil/water): -1.64
CCOc1ccc(OC(=O)NC)cc1 | 1.64 | –
O=C(O)COc1ccc(F)cc1 | 1.41 | –
NS(=O)(=O)c1cccc([N+](=O)[O-])c1 | 0.55 | –
NS(=O)(=O)c1ccc([N+](=O)[O-])c(C(F)(F)F)c1 | 1.73 | –
O=C(O)COc1cccc(C(=O)O)c1 | 1.11 | –
CC(=O)c1ccc(S(N)(=O)=O)cc1 | 0.2 | –
Cc1cccc(S(N)(=O)=O)c1 | 0.85 | –
NS(=O)(=O)c1ccc(Br)cc1 | 1.36 | –
CCCC(N)=O [BUTYRAMIDE] | – | logP ([6]; oil/water): -2.02
CNC(=O)Oc1cccc(C(C)=O)c1 | 0.9 | –
CCC(N)=O [PROPIONAMIDE] | – | logP ([6]; oil/water): -2.44
OCCO [ETHYLENE GLYCOL] | – | logP ([6]; octanol/water): -3.31; logP [7]: -2.28
CNC(=O)Oc1cccc(Cl)c1 | 2.03 | –
OCCCCCCO [1,6-HEXANEDIOL] | – | logP ([6]; oil/water): -2.17
CC(O)C(C)O (stereo not drawn) | – | logP ([6]; oil/water): -2.47
CCCCC(=O)O [VALERIC ACID] | – | logP ([6]; oil/water): 0.48
O=C(O)COc1cccc(C(F)(F)F)c1 | 2.33 | –
CCOc1ccccc1OC(=O)NC | 1.24 | –
CNC(=O)Oc1ccc(C#N)cc1 [4-CYANOPHENYL METHYLCARBAMATE] | 0.95 | –
O=C(O)Cc1ccccc1 [PHENYLACETIC ACID] | 1.41 | –

Structure (SMILES) | logP [1] | also measured
CN(C)c1ccccc1 | – | logP [4]: 2.38; pKHB: 0.45
CC1OC(C)OC(C)O1 (stereo not drawn) | – | logP ([6]; oil/water): 0.28
CNC(=O)Oc1cccc([N+](=O)[O-])c1 | 1.39 | –
NS(=O)(=O)c1ccc([N+](=O)[O-])cc1 | 0.64 | –
O=C(O)COc1cccc(Cl)c1 | 2.02 | –
O=[N+]([O-])c1ccccc1 [NITROBENZENE] | – | logP [3]: 2.93; logP [4]: 1.49
CNC(=O)Oc1cccc(N(C)C)c1 | 1.43 | –
CNC(=O)Oc1ccccc1C#N | 0.86 | –
Cc1ccc(S(N)(=O)=O)cc1 [P-TOLUENESULFONAMIDE] | 0.82 | –
Nc1ccccc1 [ANILINE] | – | logP [4]: -0.05
NS(=O)(=O)c1ccccc1 [BENZENESULFONAMIDE] | 0.31 | –
CS(=O)(=O)c1cccc(OCC(=O)O)c1 | 0 | –
CCOCC [ETHER] | – | logP ([6]; oil/water): 0.38
CNc1ccc(S(N)(=O)=O)cc1 | 0.08 | –
COc1cccc(O)c1 [1-hydroxy-3-methoxybenzene] | 1.58 | –
CNC(=O)Oc1ccc(C(C)=O)cc1 | 1.01 | –
CN(C)Cc1ccccc1 | 1.98 | logP [4]: 1.44; pKHB: 1.56
O=C(O)COc1ccc(O)cc1 | 0.65 | –
O=C(O)COc1cccc([N+](=O)[O-])c1 | 1.37 | –
O=C1CCC(=O)N1 [SUCCINIMIDE] | – | logP ([6]; oil/water): -2.31
CC(C)=O [ACETONE] | – | logP ([6]; oil/water): -0.7
CNC(=O)Oc1ccc([N+](=O)[O-])cc1 [4-NITROPHENYL METHYLCARBAMATE] | 1.46 | –
N#Cc1ccc(S(N)(=O)=O)cc1 | 0.23 | –
COc1cccc(OCC(=O)O)c1 | 1.38 | –
Clc1ccccc1 [CHLOROBENZENE] | – | logP [4]: 2.98; pKHB: -0.8

Structure (SMILES) | logP [1] | also measured
CNC(=O)Oc1ccc(C=O)cc1 | 0.99 | –
CNC(=O)Oc1ccc(C(C)C)cc1 | 2.8 | –
CCOC(N)=O | – | logP ([6]; oil/water): -1.13
CNC(=O)Oc1cccc(Br)c1 | 2.25 | –
CCOC(C)=O [ETHYL ACETATE] | – | logP ([6]; oil/water): 0.4
COc1ccccc1 [ANISOLE] | – | pKHB: 0.02
CC(O)CO (stereo not drawn) [PROPYLENE GLYCOL] | – | logP ([6]; oil/water): -2.77
CC(=O)N(C)c1ccccc1 | 1.12 | logP [4]: -0.4; pKHB: 2
CCc1ccccc1 [ETHYLBENZENE] | – | pKHB: -0.34
CNC(=O)Oc1ccccc1[N+](=O)[O-] | 1.02 | –
CC(=O)OCC(COC(C)=O)OC(C)=O [TRIACETIN] | – | logP ([6]; oil/water): -0.36
O=C(O)COc1ccccc1 | 1.26 | –
CNC(=O)Oc1cccc(C(C)C)c1 | 2.63 | –
NS(=O)(=O)c1ccc(Cl)cc1 [P-CHLOROBENZENESULFONAMIDE] | 0.84 | –
CNC(=O)Oc1cccc(C)c1 [METOLCARB] | 1.7 | –
COP(=O)(OC)Oc1ccccc1 | 1.22 | pKHB: 2.21
COc1ccc(O)cc1 [MEQUINOL] | 1.34 | –
CC(=O)c1ccccc1 [ACETOPHENONE] | – | logP [4]: 1.14; pKHB: 1.13
C1N2CN3CN1CN(C2)C3 [METHENAMINE] | – | logP ([6]; oil/water): -3.68
COC(N)=O [METHYL CARBAMATE] | – | logP ([6]; oil/water): -1.6
N#Cc1ccccc1 [BENZONITRILE] | 1.56 | logP [4]: 0.96; pKHB: 0.79
Cc1ccc(OCC(=O)O)cc1 | 1.78 | –
CCc1cccc(OCC(=O)O)c1 | 2.23 | –
